US5516806A, “Ornithine decarboxylase inhibiting cyclic aminooxy compounds” (Ciba-Geigy Corporation, priority 1993, dated 1996)
Structures can show the parent of a compound that is named as a salt.

Key:
[1] = tested on: human T24 bladder carcinoma cells; assay: Inhibition of proliferation of T24 bladder carcinoma cells (methylene blue staining, 5 days); assay type: cell-based; details: T-24, 120 h, 5 days incubation, read-out: Inhibition of T24 cell growth IC50
Experimental: The carcinoma cells (1000-1500) are transinoculated into 96-depression microlitre plates and incubated overnight under the conditions mentioned. The test substance is added in serial dilutions on day 1. The plates are incubated under the conditions mentioned for 5 days. During this period of time, the control cultures pass through at least 4 cell divisions. After the incubation, the cells are fixed with 3.3% (weight/volume=w/v) aqueous glutaraldehyde solution, washed with water and dyed with 0.05% (w/v) aqueous methylene blue solution. After washing, the dye is eluted with 3% (w/v) aqueous hydrochloric acid. Thereafter, the optical density (OD) per depression, which is directly proportional to the number of cells, is measured with a photometer (Titertek multiskan) at 665 nm. The IC50 values are calculated with a computer system using the formula [formula]
The IC50 values are defined as that concentration of active ingredient at which the number of cells per depression at the end of the incubation time is only 50% of the number of cells in the control cultures.
(§1) On measurement of the IC50 for inhibition of ornithine decarboxylase (by the abovementioned method of Seely and Pegg with ODC from rat liver (obtained by the method of Hayashi and Kameji, see above)) and of the IC50 for inhibition of proliferation of T24 bladder carcinoma cells as described above, the following IC50 values can be found with the particular compounds mentioned from the examples: […]

[2] = target: T1, ornithine decarboxylase (ODC) (Rattus norvegicus, UniProt P09057); assay: Inhibition of ornithine decarboxylase (method of Seely and Pegg, ODC from rat liver); assay type: biochemical
T1 construct: from tissue; host or cells: rat liver
T1 sequence (P09057 1-461): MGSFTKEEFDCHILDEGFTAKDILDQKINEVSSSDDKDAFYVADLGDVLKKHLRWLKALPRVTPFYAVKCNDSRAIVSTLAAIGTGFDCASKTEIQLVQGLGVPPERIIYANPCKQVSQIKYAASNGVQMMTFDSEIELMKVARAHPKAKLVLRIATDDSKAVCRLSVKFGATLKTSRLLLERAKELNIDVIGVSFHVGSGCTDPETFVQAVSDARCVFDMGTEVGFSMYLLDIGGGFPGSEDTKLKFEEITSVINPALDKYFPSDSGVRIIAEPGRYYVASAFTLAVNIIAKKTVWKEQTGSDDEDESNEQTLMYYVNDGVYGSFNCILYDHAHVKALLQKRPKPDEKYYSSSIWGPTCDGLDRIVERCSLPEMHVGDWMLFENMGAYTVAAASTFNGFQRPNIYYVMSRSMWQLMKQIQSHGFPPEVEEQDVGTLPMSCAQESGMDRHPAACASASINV
Experimental: White-Tabor (editors): Methods in Enzymology, Volume 94: Polyamines, Academic Press, New York 1983. If ODC from rat liver is used in this test (isolation: Hayashi, S.-I. and Kameji, T., same volume, pages 154-158), IC50 values in the micromolar region, down to about 0.01 μM, preferably between about 0.01 and 10 μM, for example between about 0.02 and about 7.2 μM, are obtained for the compounds of the formula I.IC50 is the concentration of the inhibitor at which the ODC activity is 50% of that of a control without the inhibitor.
as §1

Row | SMILES | IC50 [1] | IC50 [2]
1 | NOCC1CC(N)C1 (stereo not shown) [Example 8, 3-Aminooxymethyl-cyclobutylamine dihydrochloride] | 4150 nM | 20 nM
2 | NO[C@H]1CCC[C@H](N)C1 (relative stereo) [Example 3, trans-3-Aminooxy-cyclohexylamine dihydrochloride] | 11000 nM | 
3 | NO[C@H]1CC[C@H](N)CC1 [Example 1, trans-4-Aminooxy-cyclohexylamine dihydrochloride] | 7500 nM | 220 nM
4 | NC[C@@H]1C[C@@H]1CON (relative stereo) [Example 10, cis-2-Aminooxymethyl-cyclopropylmethylamine dihydrochloride] |  | 470 nM
5 | NCC1CC(ON)C1 (stereo not shown) [Example 9, 3-Aminooxy-cyclobutylmethylamine dihydrochlofide] |  | 53 nM
6 | NOC[C@H]1C[C@H](N)C1 [Example 7, trans-3-Aminooxymethyl-cyclobutylamine dihydrochloride] | 4900 nM | 23 nM
7 | NOC[C@H]1C[C@@H](N)C1 [Example 6, cis-3-Aminooxymethyl-cyclobutylamine dihydrochlofide] |  | 83 nM
